The text below walks through data of patent US4061639A, “Quinolinesulfonyl compounds” (The Dow Chemical Company, priority 1976, dated 1977).

Holding throughout (assay): agar dilution antimicrobial test (growth inhibition)
What all share (type): cell-based
In general terms: Agar dilution tests growth on a series of plates holding different concentrations.

The subject of experiment [1] is E. coli. The note with it: Escherichia coli, read-out: Percent Growth Inhibition. The procedure:
(§1) In representative activity tests, 8-quinolinesulfonyl bromide is dispersed in warm melted nutrient agar which is then poured into petri dishes and allowed to solidify, the quinoline compound being employed in an amount sufficient to provide from 10 to 500 parts by weight thereof per million parts (ppm) of the ultimate agar composition. The surface of the agar is then inoculated with a variety of bacterial and fungal pest organisms, and the inoculated plates are incubated under conditions conducive to bacterial and fungal growth. Similar check plates in which the agar contains no active quinoline or other toxic compound are similarly inoculated and incubated.
(§2) In such operations, 8-quinolinesulfonyl bromide gave 100% growth inhibition (kills) and control of the following organisms at the indicated concentrations in parts per million:
(§3) In comparative operations, 8-quinolinesulfonyl chloride was tested for antimicrobial activity at 500 ppm using identical agar dilution tests. The following table indicates the percent growth inhibition of the following organisms: […]

The subject of experiment [2] is M. phlei. The settings on record: Mycolicibacterium phlei, read-out: Percent Growth Inhibition. On the procedure:
as §1, §2, §3

For experiment [3], the system named is S. aureus. The settings on record: Staphylococcus aureus, read-out: Percent Growth Inhibition. On the procedure: as §1, §2, §3
The subject of experiment [4] is P. pullulans. The settings on record: read-out: Percent Growth Inhibition. On the procedure: as §1, §2, §3
In experiment [5] the test system is P. Str-10. The settings on record: read-out: Percent Growth Inhibition. The procedure:
as §1, §2, §3

The test system of experiment [6] is C. albicans. The settings on record: Candida albicans, read-out: Percent Growth Inhibition. On the procedure:
as §1, §2, §3

The test system of experiment [7] is C. pelliculosa. The note with it: Hansenula anomala, read-out: Percent Growth Inhibition. On the procedure: as §1, §2, §3
The test system of experiment [8] is Trichoderm Sp. Madison P-42. The note with it: read-out: Percent Growth Inhibition. On the procedure: as §1, §2, §3
Experiment [9] has as its system A. aerogenes. The note with it: Klebsiella aerogenes, read-out: Percent Growth Inhibition. On the procedure:
as §1, §2, §3

Experiment [10] deals with B. subtilis. The settings on record: Bacillus subtilis, read-out: Percent Growth Inhibition. On the procedure:
as §1, §2, §3

Experiment [11] deals with C. ips. The settings on record: read-out: Percent Growth Inhibition. On the procedure:
as §1, §2, §3

Experiment [12] deals with R. nigricans. The note with it: Rhizopus stolonifer, read-out: Percent Growth Inhibition. The procedure:
as §1, §2, §3

For experiment [13], the system named is S. typhosa. The settings on record: read-out: Percent Growth Inhibition. On the procedure:
as §1, §2, §3

In general, inhibition refers to the drop in the measured response relative to a control, in per cent. As for `O=S(=O)(Cl)c1cccc2cccnc12` [8-Quinolinesulfonyl Chloride, 8-quinolinesulfonyl chloride], the inhibition at 500 ppm in experiment [1] turned out to be 0%; in experiment [2], 50%; in experiment [3], 0%; in experiment [4], 0%; in experiment [5], 0%; in [6], 0%. Also, the inhibition at 500 ppm in experiment [7], in experiment [8], in experiment [9], in experiment [10], in [11] and in [12] was 0% each time. Moreover, the inhibition at 500 ppm in experiment [13] stood at 0%.
